Target: T1, NOD2 (Homo sapiens, UniProt Q9HC29)
T1 construct: host or cells: HEK293 / HEK293T cells carrying a NOD2-responsive luciferase reporter
Experiment: NOD2 activity by luciferase assay in HEK293 cells
Format: cell-based
Details: 10 ng/ml MDP control, 24 hours, untreated = 1.00
Method: Existing literature has reported that the protective effect of lactic acid bacteria on inflammatory bowel disease results from the anti-inflammatory effect of NOD2, which is an innate immune receptor protein. […] Specifically, HEK293 cells were treated with 1 MOI of several types of lactic acid bacteria, which had been transduced to generate luciferase by transcription of the luciferase gene through the stimulation of NOD2. For a control with respect to cell activity, HEK293 cells were treated with 10 ng/ml muramyl dipeptide (MDP) capable of stimulating NOD2 and then cultured in a cell incubator for 24 hours. Thereafter, the NOD2 activity was determined by luciferase assay on the luciferase generated from cell rupture. MDP, which is a component of the peptidoglycan constituting the cell wall of bacteria, is a ligand that directly acts on NOD2, and this was used as a control.

T1 sequence (Q9HC29 whole entry): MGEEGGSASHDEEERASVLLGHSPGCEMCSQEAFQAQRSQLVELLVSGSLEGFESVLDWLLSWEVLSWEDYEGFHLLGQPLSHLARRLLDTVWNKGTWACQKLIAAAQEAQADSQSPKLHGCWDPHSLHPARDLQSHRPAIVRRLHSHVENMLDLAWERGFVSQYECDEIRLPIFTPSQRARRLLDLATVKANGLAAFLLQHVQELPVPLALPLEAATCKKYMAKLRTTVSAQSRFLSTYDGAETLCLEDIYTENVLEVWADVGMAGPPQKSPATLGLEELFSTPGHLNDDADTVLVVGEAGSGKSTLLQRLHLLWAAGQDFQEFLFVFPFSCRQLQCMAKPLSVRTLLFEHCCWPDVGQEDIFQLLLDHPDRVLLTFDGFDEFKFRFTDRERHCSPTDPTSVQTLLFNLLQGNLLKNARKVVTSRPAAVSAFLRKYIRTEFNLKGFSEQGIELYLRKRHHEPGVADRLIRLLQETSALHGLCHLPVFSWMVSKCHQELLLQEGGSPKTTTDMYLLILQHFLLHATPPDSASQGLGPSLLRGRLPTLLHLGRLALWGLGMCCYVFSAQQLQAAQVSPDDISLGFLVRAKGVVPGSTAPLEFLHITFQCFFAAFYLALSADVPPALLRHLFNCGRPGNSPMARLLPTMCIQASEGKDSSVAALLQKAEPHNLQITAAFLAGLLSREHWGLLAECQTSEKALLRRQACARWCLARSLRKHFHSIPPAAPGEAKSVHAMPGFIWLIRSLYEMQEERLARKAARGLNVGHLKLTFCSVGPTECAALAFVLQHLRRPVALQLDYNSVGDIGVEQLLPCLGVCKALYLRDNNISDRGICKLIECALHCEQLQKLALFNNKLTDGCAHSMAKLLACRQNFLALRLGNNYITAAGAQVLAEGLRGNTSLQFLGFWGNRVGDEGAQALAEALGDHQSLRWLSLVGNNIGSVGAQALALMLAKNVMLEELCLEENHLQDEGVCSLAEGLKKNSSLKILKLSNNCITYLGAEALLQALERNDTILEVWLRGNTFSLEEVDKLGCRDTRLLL

With `CC(=O)N[C@H]1C(O)O[C@H](CO)[C@@H](O)[C@@H]1O[C@H](C)C(=O)N[C@@H](C)C(=O)N[C@H](CCC(=O)O)C(N)=O` (mixture of isomers) [MDP, muramyl dipeptide] the “NOD2 Activity” value was 40.70.
